# In ChEMBL document CHEMBL1201862, “PubChem BioAssay data set” (2004):
#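 Exposure lasted 48 hours, with cells grown in 96-well plates and compounds tested at five concentrations. GI50 marks 50% less growth.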 Calls of active or inactive are those of the source. Cut-off read from the data, not from the text of the source: active = GI50 up to about 1.1 µM and inactive = higher.
# Columns and labels:
# Assay in all cases: DTP human tumour cell line panel, 48 h
# OVCAR-4 = tested on: OVCAR-4
# MDA-MB-435 = tested on: MDA-MB-435
# SNB-75 = tested on: SNB-75
# PC-3 = tested on: PC-3
# SNB-19 = tested on: SNB-19
# MDA-MB-231 = tested on: MDA-MB-231
# MCF7 = tested on: MCF7
# HCC 2998 = tested on: HCC 2998
# SK-MEL-2 = tested on: SK-MEL-2
# SF-539 = tested on: SF-539
# MOLT-4 = tested on: MOLT-4
# Malme-3M = tested on: Malme-3M
# 786-0 = tested on: 786-0
# T47D = tested on: T47D
# COLO 205 = tested on: COLO 205
# HOP-62 = tested on: HOP-62
# HT-29 = tested on: HT-29
# SW-620 = tested on: SW-620
# K562 = tested on: K562
# SF-295 = tested on: SF-295
SMILES,GI50 (OVCAR-4),GI50 (MDA-MB-435),GI50 (SNB-75),GI50 (PC-3),GI50 (SNB-19),GI50 (MDA-MB-231),GI50 (MCF7),GI50 (HCC 2998),GI50 (SK-MEL-2),GI50 (SF-539),GI50 (MOLT-4),GI50 (Malme-3M),GI50 (786-0),GI50 (T47D),GI50 (COLO 205),GI50 (HOP-62),GI50 (HT-29),GI50 (SW-620),GI50 (K562),GI50 (SF-295)
COC(=O)N1CC2(CO)C3CC=C(C(=O)Nc4ccccc4Br)C2C1C3Br (stereo not given),> 50 µM (inactive),> 50 µM (inactive),> 50 µM (inactive),> 50 µM (inactive),> 50 µM (inactive),> 50 µM (inactive),> 50 µM (inactive),> 50 µM (inactive),> 50 µM (inactive),> 50 µM (inactive),> 50 µM (inactive),> 50 µM (inactive),> 50 µM (inactive),> 50 µM (inactive),> 50 µM (inactive),> 50 µM (inactive),> 50 µM (inactive),> 50 µM (inactive),> 50 µM (inactive),> 50 µM (inactive)
COc1ccc2c(c1)c1c3c(ccc4ncn2c43)N(CCO)CCN=1,0.221 µM (active),0.234 µM (active),0.306 µM (active),0.148 µM (active),0.234 µM (active),0.183 µM (active),0.189 µM (active),0.147 µM (active),0.175 µM (active),0.0893 µM (active),0.026 µM (active),0.187 µM (active),0.0736 µM (active),0.263 µM (active),0.101 µM (active),0.132 µM (active),0.136 µM (active),0.802 µM (active),0.0586 µM (active),0.19 µM (active)
